# Source: patent US20240238310A1, “MODULATION OF SEX STEROID HORMONE PRODUCTION AND ACTIVITY FOR TREATING AND PREVENTING HERNIAS” (Northwestern University, priority 2020, published 2024)
# “Also recorded” adds a separate entry of the source.
# Tests used:
# Arom^hum mice [1] = details: 3 weeks old mice; high-dose DHT via injection for 53 days; vs vehicle; p<0.005
# Method: 3-week-old mice were treated with vehicle (Veh) or DHT for 53 days.
# [2] = test system: LAMT Arom^Hum fibroblasts; experiment: R1881 treatment of primary fibroblasts, western blot (AR, PCNA); assay type: cell-based, mouse; details: for increase in PCNA levels (densitometry normalized to GAPDH): preliminary data
# Method: (§2) Primary fibroblasts were isolated from LAMT from WT and Arom^Hum mice (n=5/genotype). Cells were treated for 24 hours with increasing doses (0.001, 0.01, 0.1, 1, 5, 10, and 100 nM) of R1881, a synthetic androgen, and compared to untreated cells by western blot.
# LAMT WT fibroblasts = experiment: as above; assay type: cell-based, mouse; details: for increase in PCNA levels (densitometry normalized to GAPDH): preliminary data
# Method: as §2
# Arom^hum mice [3] = experiment: Prevention of inguinal hernia, LAMT fibrosis and atrophy in Arom^hum mice (treatment started before hernia formation); assay type: in vivo, mouse
# Excerpt: Increased LAMT estrogen levels are associated with LAMT fibrosis, myocyte atrophy, and inguinal hernia development; aromatase inhibitor prevents hernia formation in Arom^hum mice. […] None of the WT littermates (n=32) developed hernia.
# In the mouse, the scrotum is connected to the peritoneal cavity with a narrow funicular (or inguinal) canal, whose walls are composed of LAMT. Structurally normal LAMT is essential to maintain the tone of this canal and prevents herniation of bowel. LAMT is the critical site affected by E2 excess (FIGS. 2, 5, 6). As in many other tissues, stromal cells intimately interact with parenchymal cells (myocytes) in UAMT and LAMT (FIG. 6). […] Administration of the aromatase inhibitor letrozole started at 3 weeks of age for 12 weeks prevented LAMT atrophy, fibrosis and herniation in all (10 out of 10) treated Arom^hum mice (FIG. 6B).
# Experiment 1a1: Does aromatase inhibition arrest or reverse LAMT fibrosis, atrophy, and hernia in male Arom^hum mice? […] The hernias will be classified as mild, early moderate, late moderate and severe if the bulging area through muscle tissue is <100 mm^2 (˜4 weeks), 100-150 mm^2 (˜6 weeks), 150-200 mm^2 (˜8 weeks), or >200 mm^2 (˜10 weeks), respectively. First, we will treat Arom^hum mice showing mild hernias with letrozole (SC 10 μg/day release pellet) or vehicle starting at 4 weeks of age for 12 weeks^63. We will assess whether muscle fibrosis, atrophy, and hernia can be arrested or reversed in mildly (<100 mm^2) affected animals. If early letrozole treatment can arrest mild muscle fibrosis, we will delay the initiation of treatment to 6, 8, or 10 weeks of age to determine whether letrozole can arrest or reverse the growth of the early moderate (6 weeks), late moderate (8 weeks) or severe hernia (10 weeks). Hernia development will be monitored by visual inspection twice a week for 12 weeks after letrozole administration and will be reported as hernia incidence using Kaplan-Meier curve analysis. The length and width of the observed hernias will be measured to calculate the surface area (length×width). After completion of the treatment, the mice will be dissected, and LAMT, UAMT (control), and serum will be collected. One hundred mg of frozen muscle tissue will be obtained to measure tissue estrogen levels. Circulating and tissue (LAMT and UAMT) E2 levels will be measured at the IIT Research Institute by Dr. Miguel Muzzio (see letter) using LC-MS^2. We will use immunoblotting and IHC to determine ERα expression in LAMT and UAMT.
# This finding was published in PNAS in Oct., 2018. […] We treated Arom^hum mice with fulvestrant for 12 weeks starting at the age of 4 weeks (before hernia formation). As expected, placebo-treated Arom^hum mice developed scrotal hernias.
# LAMT E2 = experiment: Serum and LAMT estradiol (E2) by LC-MS^2 after letrozole treatment; assay type: in vivo, mouse; details: Arom^hum mice, letrozole 10 μg daily SC pellets starting at week 3
# Method: FIG. 4. (A) Serum estradiol (E2) and (B) LAMT E2 were measured by liquid chromatography-tandem mass spectrometry (LC-MS^2) assay after letrozole (let) treatment (n=10/group). *p<0.05. **p<0.01. Veh, vehicle.
# LAMT estrogen levels are increased in Arom^hum mice. Arom^hum mice recapitulate the primary aspects of aromatase expression in men in that most peripheral (extragonadal) tissues, such as skeletal muscle and adipose tissue, express aromatase primarily using the distal promoter 1.4 and, to a lesser extent, the proximal promoter II (FIG. 3)^32. […] Local E2 levels in LAMT, however, are strikingly higher in Arom^hum mice than in WT mice (FIG. 4B).
# Increased LAMT estrogen levels are associated with LAMT fibrosis, myocyte atrophy, and inguinal hernia development; aromatase inhibitor prevents hernia formation in Arom^hum mice. […]
# Experiment 1a1: Does aromatase inhibition arrest or reverse LAMT fibrosis, atrophy, and hernia in male Arom^hum mice? […] Hernia development will be monitored by visual inspection twice a week for 12 weeks after letrozole administration and will be reported as hernia incidence using Kaplan-Meier curve analysis. The length and width of the observed hernias will be measured to calculate the surface area (length×width). […] Circulating and tissue (LAMT and UAMT) E2 levels will be measured at the IIT Research Institute by Dr. Miguel Muzzio (see letter) using LC-MS^2. […]
# Arom^hum mice [4] = experiment: Reversal of established scrotal hernias and LAMT fibrosis/atrophy in Arom^hum mice; assay type: in vivo, mouse; details: for time required to reverse large hernias, compared to fulvestrant treatment / reversal of large scrotal hernia: Arom^hum mice with large hernias
# Method: FIG. 16. […] Arom^hum mice with small to moderate size of hernias were treated with placebo or letrozole for 12 weeks. (A) Schematic diagram depicts the schedule of drug administration. (B) The area of scrotal hernia in Arom^hum mice. (C) Representative photomicrographs of Masson's trichrome-stained LAMT sections of WT and Arom^hum mice. Quantification of the percentage of connective tissue or fibrotic area (D) or myofiber area (E) in WT and Arom^hummice. 10 representative high-power fields were analyzed in each tissue. One-way ANOVA with Tukey's multiple comparison test, **p<0.01, ***p<0.001. Scale bars, […]. n=5 mice per group.
# FIG. 17. […] Arom^hum mice with small to moderate size of hernias were treated with placebo or letrozole for 3 weeks. (A) Schematic diagram depicts the schedule of drug administration. (B) The area of scrotal hernia in Arom^hum mice.
# FIG. 18. E2/ER antagonist fulvestrant reverses the large size of scrotal hernias and rescues LAMT fibrosis and myocyte atrophy in Arom^hum mice. Arom^hum mice with large size of hernias were treated with placebo or fulvestrant for 12 weeks. (A) Schematic diagram depicts the schedule of drug administration. (B) The area of scrotal hernia in Arom^hum mice. (C) Representative photomicrographs of Masson's trichrome-stained LAMT sections of WT and Arom^hum mice. Quantification of the percentage of connective tissue or fibrotic area (D) in WT and Arom^hum mice. 10 representative high-power fields were analyzed in each tissue. (E) Hydroxyproline content in LAMT of WT and Arom^hum mice treated with fulvestrant. One-way ANOVA with Tukey's multiple comparison test, ***p<0.001, ****p<0.0001. n=5 mice per group.
# (§1) FIG. 19. Aromatase inhibitor letrozole reverses the large size of scrotal hernias in Arom^hum mice. Arom^hum mice with large size of hernias were treated with placebo or letrozole for 12 weeks. (A) Schematic diagram depicts the schedule of drug administration. (B) The area of scrotal hernia in Arom^hum mice.
# as §1, with “20. E2/ER antagonist raloxifene” for “19. Aromatase inhibitor letrozole”, “raloxifene” for “letrozole”, “3” for “12”
# We treated Arom^hum mice with letrozole for 12 weeks. […] Raloxifene is a selective estrogen receptor modulator (SERM) and is currently used to prevent and treat osteoporosis in postmenopausal women.
# We treated Arom^hum mice with fulvestrant for 12 weeks when the hernia area was over 200 mm^2. Large hernias were completely disappeared after 3- to 4-week of fulvestrant administration. […] We measured the total amount of collagen (largely type I and III), a major component of ECM, through measuring the content of hydroxyproline(1).
# [5] = test system: LAMT primary fibroblasts from Arom^hum mice; experiment: mRNA levels of estrogen-responsive and fibrotic genes in LAMT primary fibroblasts after E2 antagonist treatment; assay type: cell-based, mouse; details: MPP, pretreated 2 hours before addition of E2 (10 nM)
# Method: FIG. 10. mRNA levels of estrogen-responsive genes [Pgr (A, E) and Greb1 (B, F)] and fibrotic genes [Spon2 (C, G), Kiss1 (D), and Eln (H)] in LAMT primary fibroblasts from Arom^hum mice after treatment with 100 nM ICI 182,780 (ICI) or […] MPP in the presence or absence of E2 (10 nM). Cells were pretreated with ICI 182,780 or MPP for 2 hours before the addition of E2. Veh, vehicle. *P<0.05, **P<0.01. GAPDH mRNA levels served as controls.
# Experiment 1a2: Does the general E2 antagonist fulvestrant, which downregulates and blocks ER, or ERα-selective E2 antagonist MPP prevent, arrest or reverse LAMT muscle fibrosis, atrophy and inguinal hernias in male Arom^hum mice? […] Here, we will define whether the effects of E2 on hernia formation in LAMT is mediated via ERα in vivo. We will treat Arom^hum or WT mice with vehicle, fulvestrant (ICI 182,780), or MPP. […] Circulating and muscle tissue E2 levels will be measured using LC-MS^2. To validate the effects of each treatment, protein expression of ERα and E2/ERα target genes (Ccnd1, Pgr, and Greb1), and cell proliferation markers (Ki67 and PCNA) will be determined by IHC and immunoblotting. Fibrotic-related genes (Kiss1, Ren1, Emb, Timp1, Spon2, and Eln), the ECM marker Col1a1, and the myocyte marker Myh will be assessed using qPCR and IHC in LAMT after fulvestrant, MPP, and/or letrozole treatment. […]
# [6] = R1881 0.001-100 nM, 24 hours, western blot
# [7] = Arom^hum mice with small to moderate hernias, letrozole for 12 weeks
smiles,measurement,setting,value
"C[C@]12CCC(=O)C[C@@H]1CC[C@@H]1[C@@H]2CC[C@]2(C)[C@@H](O)CC[C@@H]12 [DHT, dihydrotestosterone]",hernia volume,Arom^hum mice [1],significantly decreased
"C[C@]1(O)CC[C@H]2[C@@H]3CCC4=CC(=O)CCC4=C3C=C[C@@]21C [R1881, (17b)-17-Hydroxy-17-methyl-estra-4,9,11-trien-3-one]",increase in PCNA levels (densitometry normalized to GAPDH),"[2]; 0.001 nM R1881, 24 hours",20%
same,increase in PCNA levels (densitometry normalized to GAPDH),"[2]; 0.01 nM R1881, 24 hours",30%
same,decrease in PCNA levels,"[2]; 10 nM R1881, 24 hours",40%
same,decrease in PCNA levels,"[2]; 100 nM R1881, 24 hours",30%
same,AR levels,[2]; [6],increased AR levels in a dose-dependent manner
same,increase in PCNA levels (densitometry normalized to GAPDH),"LAMT WT fibroblasts; 0.001 nM R1881, 24 hours",80%
same,increase in PCNA levels (densitometry normalized to GAPDH),"LAMT WT fibroblasts; 0.01 nM R1881, 24 hours",60%
same,decrease in PCNA levels,"LAMT WT fibroblasts; 100 nM R1881, 24 hours",25%
same,AR levels,LAMT WT fibroblasts; [6],increased AR levels in a dose-dependent manner
N#Cc1ccc(C(c2ccc(C#N)cc2)n2cncn2)cc1 [letrozole],hernia development,"Arom^hum mice [3]; Arom^hum male mice, letrozole 10 μg daily via subcutaneous slow-release pellets starting at week 3, 12 weeks","entirely prevented LAMT fibrosis or inguinal hernia development in all animals; also recorded: prevented hernia development in all Arom^hum mice; also recorded: prevents abdominal bulging, LAMT stromal fibrosis, myocyte atrophy, and inguinal hernias in three lines of Arom^hum mice; also recorded: completely prevented the formation of inguinal hernias"
same,ECM content in LAMT,Arom^hum mice [3]; Arom^hum mice,significantly decreased
same,"development of LAMT fibrosis (fibrotic area, Masson's trichrome)","Arom^hum mice [3]; Arom^hum mice, 4-week-old mice treated for 12 weeks, FIGS. 15C and D",completely prevented with letrozole treatment
same,stromal cell proliferative activity (Ki67-positive stromal cells) in LAMT,"Arom^hum mice [3]; Arom^hum mice, FIG. 7E",significantly decreased stromal cell proliferative activity
same,LAMT atrophy and fibrosis (Masson's trichrome staining),"Arom^hum mice [3]; Arom^hum mice, letrozole, FIG. 6B",prevented LAMT atrophy and fibrosis
same,"treated mice in which LAMT atrophy, fibrosis and herniation were prevented","Arom^hum mice [3]; Arom^hum mice, started at 3 weeks of age for 12 weeks",10 out of 10
same,LAMT E2 levels,LAMT E2,restored LAMT E2 levels similar to WT LAMT levels
same,"time required to reverse large hernias, compared to fulvestrant treatment",Arom^hum mice [4],require a longer time to reverse large hernias as compared to fulvestrant treatment
same,reversal of large scrotal hernia,"Arom^hum mice [4]; letrozole for 12 weeks, FIG. 19",reverses large scrotal hernia
same,muscle fibrosis,Arom^hum mice [4]; [7],reduction in muscle fibrosis
same,myocyte size,Arom^hum mice [4]; [7],restoration of myocyte size
same,reversal of mild to moderate size of hernia (150-200 mm^2),"Arom^hum mice [4]; Arom^hum mice, letrozole for 12 weeks, FIG. 16",can reverse mild to moderate size of hernia
"Cc1c(-c2ccc(O)cc2)nn(-c2ccc(O)cc2)c1-c1ccc(OCCN2CCCCC2)cc1 [MPP, Methyl-Piperidino-Pyrazole]","E2-induced expression of estrogen-responsive genes (Pgr and Greb1) and fibrotic genes (Spon2, Kiss1, Eln)",[5],"significantly decreased E2-induced expression of estrogen-responsive genes (Pgr and Greb1) and fibrotic genes (Spon2, Kiss1 and, Eln)"
O=C(c1ccc(OCCN2CCCCC2)cc1)c1c(-c2ccc(O)cc2)sc2cc(O)ccc12 [raloxifene],"time required to reverse large hernias, compared to fulvestrant treatment",Arom^hum mice [4],require a longer time to reverse large hernias as compared to fulvestrant treatment
same,reversal of large scrotal hernia,"Arom^hum mice [4]; raloxifene for 3 weeks, FIG. 20",reverses large scrotal hernia
same,reversal of small to large hernias,"Arom^hum mice [4]; Arom^hum mice, 3-week raloxifene treatment, FIGS. 17 and 20",capable to reverse small to large hernias
same,reversal of mild to moderate size of hernia,"Arom^hum mice [4]; Arom^hum mice, raloxifene for 21 days, FIG. 17",can also reverse mild to moderate size of hernia; also recorded: reverses the small to moderate size of scrotal hernias
